Measurements as given in patent US20100168125A1, “INDOLIZINES AND AZA-ANALOG DERIVATIVES THEREOF AS CNS ACTIVE COMPOUNDS” (priority 2007, published 2010).
Where two headings read alike, the source gives them in different places.

How the values were obtained:
human D2long receptor = target: T1, human D2long receptor (Homo sapiens, UniProt P14416); assay: radioligand binding with [^3H]spiperone, D2long; details: [^3H]spiperone, CHO membranes, mean of 2 to 4 experiments; read-out: Ki D2lo
T1 construct: expressed in transfected cells; host or cells: Chinese hamster ovary (CHO) cells, membranes
Description: (§1) For the determination of binding affinity to the receptors of the dopamine D2 family membranes were established carrying the human D2long, D2short, D3 or D4.4 receptor subtype expressed in Chinese hamster ovary cell lines. In principle, the binding experiments started when incubating an appropriate amount of membrane with the radioligand [^3H]spiperone and the particular test compounds diluted in a wide range of different concentrations from subnanomolar up to micromolar.

human D2short receptor = target: T2, human D2short receptor (Homo sapiens, UniProt P14416); assay: radioligand binding with [^3H]spiperone, D2short; details: [^3H]spiperone, CHO membranes, mean of 2 to 4 experiments; read-out: Ki D2sh
T2 construct: expressed in transfected cells; host or cells: Chinese hamster ovary (CHO) cells, membranes
Description: as §1

human D3 receptor = target: T3, human D3 receptor (Homo sapiens, UniProt P35462); assay: radioligand binding with [^3H]spiperone, D3; details: [^3H]spiperone, CHO membranes, mean of 2 to 4 experiments
T3 construct: expressed in transfected cells; host or cells: Chinese hamster ovary (CHO) cells, membranes
Description: as §1

human D4.4 receptor = target: T4, human D4.4 receptor (Homo sapiens, UniProt P21917); assay: radioligand binding with [^3H]spiperone, D4.4; details: [^3H]spiperone, CHO membranes, mean of 2 to 4 experiments
T4 construct: expressed in transfected cells; host or cells: Chinese hamster ovary (CHO) cells, membranes
T4 sequence (P21917 1-419): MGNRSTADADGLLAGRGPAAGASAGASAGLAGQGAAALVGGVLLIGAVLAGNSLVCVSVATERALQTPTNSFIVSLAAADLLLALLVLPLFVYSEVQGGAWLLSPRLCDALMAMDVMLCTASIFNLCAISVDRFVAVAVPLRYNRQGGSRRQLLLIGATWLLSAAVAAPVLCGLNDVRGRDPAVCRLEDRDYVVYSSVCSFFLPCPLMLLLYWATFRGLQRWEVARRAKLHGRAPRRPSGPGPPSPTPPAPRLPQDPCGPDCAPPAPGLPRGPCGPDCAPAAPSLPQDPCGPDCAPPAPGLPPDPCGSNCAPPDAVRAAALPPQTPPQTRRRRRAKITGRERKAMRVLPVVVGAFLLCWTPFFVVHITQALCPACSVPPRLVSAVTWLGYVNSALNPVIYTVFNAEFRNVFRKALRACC
Description: as §1

5-HT1A receptor = target: T5, 5-HT1A receptor (Sus scrofa, UniProt A0A4X1UTF5); assay: radioligand binding, porcine cortical membranes, [^3H]8-OH-DPAT and [^3H]WAY 100635; details: porcine cortical membranes
T5 construct: membrane preparations from porcine cortical material; from tissue; host or cells: porcine cerebral cortex membranes
T5 sequence (A0A4X1UTF5 1-422): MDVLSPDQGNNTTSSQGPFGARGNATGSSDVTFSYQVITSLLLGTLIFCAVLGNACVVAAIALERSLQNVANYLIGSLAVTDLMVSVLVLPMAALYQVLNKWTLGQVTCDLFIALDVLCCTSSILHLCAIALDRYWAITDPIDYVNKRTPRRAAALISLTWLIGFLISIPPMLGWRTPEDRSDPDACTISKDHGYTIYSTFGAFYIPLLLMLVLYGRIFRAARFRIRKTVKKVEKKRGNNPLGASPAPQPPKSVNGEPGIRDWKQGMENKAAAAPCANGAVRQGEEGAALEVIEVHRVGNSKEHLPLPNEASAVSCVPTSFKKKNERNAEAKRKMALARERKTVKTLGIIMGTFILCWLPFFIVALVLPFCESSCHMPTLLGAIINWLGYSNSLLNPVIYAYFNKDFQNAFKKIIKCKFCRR

5-HT2 receptor = target: T6, 5-HT2 receptor (Sus scrofa, UniProt P50129); assay: radioligand binding, porcine cortical membranes, [^3H]ketanserin; details: porcine cortical membranes, [^3H]ketanserin
T6 construct: membrane preparations from porcine cortical material; from tissue; host or cells: porcine cerebral cortex membranes

[1] = target: dopamine D2short receptor (Homo sapiens, UniProt P14416); assay: [^35S]GTPγS-incorporation assay, intrinsic activity
[2] = read-out: D2short: [^35S]GTPγS intrinsic activity, % activity of quinpirol
[3] = read-out: D2short: [^35S]GTPγS intrinsic activity

T1 sequence (P14416 whole entry): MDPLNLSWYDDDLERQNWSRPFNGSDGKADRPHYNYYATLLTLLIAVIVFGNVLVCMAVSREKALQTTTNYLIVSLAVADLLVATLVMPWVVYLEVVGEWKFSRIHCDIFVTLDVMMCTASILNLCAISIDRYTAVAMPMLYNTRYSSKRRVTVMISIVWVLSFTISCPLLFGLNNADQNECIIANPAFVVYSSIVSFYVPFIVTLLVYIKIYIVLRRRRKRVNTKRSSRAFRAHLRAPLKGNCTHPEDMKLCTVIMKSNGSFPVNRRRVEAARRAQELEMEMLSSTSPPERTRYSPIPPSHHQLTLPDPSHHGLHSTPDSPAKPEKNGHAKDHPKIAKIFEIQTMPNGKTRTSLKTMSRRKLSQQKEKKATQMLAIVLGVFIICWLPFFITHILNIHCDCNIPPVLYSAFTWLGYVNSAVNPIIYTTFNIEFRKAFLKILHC
T6 sequence (P50129 whole entry): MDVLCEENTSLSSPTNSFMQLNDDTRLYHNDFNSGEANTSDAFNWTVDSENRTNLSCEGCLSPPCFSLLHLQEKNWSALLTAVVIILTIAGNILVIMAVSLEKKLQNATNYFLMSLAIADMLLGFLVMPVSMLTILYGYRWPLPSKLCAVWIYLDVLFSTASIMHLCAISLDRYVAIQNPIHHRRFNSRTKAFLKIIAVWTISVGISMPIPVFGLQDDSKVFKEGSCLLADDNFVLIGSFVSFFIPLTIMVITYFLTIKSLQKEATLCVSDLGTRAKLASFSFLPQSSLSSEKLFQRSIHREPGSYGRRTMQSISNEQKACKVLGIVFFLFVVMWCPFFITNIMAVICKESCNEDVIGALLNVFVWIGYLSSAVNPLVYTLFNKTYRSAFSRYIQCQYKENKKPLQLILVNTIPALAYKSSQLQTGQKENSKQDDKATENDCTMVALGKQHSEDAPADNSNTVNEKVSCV
dopamine D2short receptor, sequence (P14416 1-414 isoform P14416-2): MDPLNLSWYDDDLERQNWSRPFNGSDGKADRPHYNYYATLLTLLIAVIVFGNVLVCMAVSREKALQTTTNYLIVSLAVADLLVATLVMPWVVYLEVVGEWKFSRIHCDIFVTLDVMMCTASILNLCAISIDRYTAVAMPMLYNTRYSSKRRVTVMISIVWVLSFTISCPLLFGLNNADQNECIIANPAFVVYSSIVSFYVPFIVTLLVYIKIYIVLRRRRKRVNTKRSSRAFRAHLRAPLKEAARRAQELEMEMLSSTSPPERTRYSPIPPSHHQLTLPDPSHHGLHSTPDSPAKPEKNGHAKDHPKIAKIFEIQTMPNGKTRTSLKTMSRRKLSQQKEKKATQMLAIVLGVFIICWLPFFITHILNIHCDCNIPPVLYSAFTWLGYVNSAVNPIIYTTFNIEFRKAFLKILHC
T2 sequence (P14416 1-414 isoform P14416-2): as above
T3 sequence (P35462 whole entry): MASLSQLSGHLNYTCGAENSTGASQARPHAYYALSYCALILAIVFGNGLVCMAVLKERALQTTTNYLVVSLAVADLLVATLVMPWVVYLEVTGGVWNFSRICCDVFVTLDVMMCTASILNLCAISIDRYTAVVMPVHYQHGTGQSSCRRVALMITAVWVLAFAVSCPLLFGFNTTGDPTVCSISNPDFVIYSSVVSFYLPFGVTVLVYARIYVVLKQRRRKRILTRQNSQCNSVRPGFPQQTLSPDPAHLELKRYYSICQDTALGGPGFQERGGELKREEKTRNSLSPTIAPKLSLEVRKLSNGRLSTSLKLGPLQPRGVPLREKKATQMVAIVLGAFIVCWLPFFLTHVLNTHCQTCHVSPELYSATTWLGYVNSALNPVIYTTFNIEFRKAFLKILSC

Structure (SMILES)	Ki (human D2long receptor) [nM]	Ki (human D2short receptor) [nM]	Ki (human D3 receptor) [nM]	Ki (human D4.4 receptor) [nM]	Ki (5-HT1A receptor) [nM]	Ki (5-HT2 receptor) [nM]	melting point [°C]	Emax [1, 2] [%]	Emax [1, 3] [%]
Clc1ccccc1N1CCN(CCCCOc2ccc3ccnn3c2)CC1 [Example E53, 6-[4-[4-(2-Chlorophenyl)piperazin-1-yl]butoxy]pyrazolo[1,5-a]pyridine]	< 30	< 30	< 30	< 30	< 30	301 to 3000	86	< 15	–
Clc1cccc(N2CCN(CCCCOc3ccn4ncc(Br)c4c3)CC2)c1Cl [Example E42, 3-Bromo-5-[4-[4-(2,3-dichlorophenyl)piperazin-1-yl]butoxy]pyrazolo[1,5-a]pyridine]	30 to 300	30 to 300	< 30	301 to 3000	301 to 3000	> 3000	132	15 to 40	–
Nc1cccc(N2CCN(CCCCOc3ccn4nccc4c3)CC2)c1 [Example E66, 5-[4-[4-(3-Aminophenyl)piperazin-1-yl]butoxy]pyrazolo[1,5-a]pyridine]	–	–	–	–	–	–	86	–	–
COC(=O)c1cnn2ccc(OCCCCN3CCN(c4cccc(Cl)c4Cl)CC3)cc12 [Example E39, Methyl 5-[4-[4-(2,3-dichlorophenyl)piperazin-1-yl]butoxy]pyrazolo[1,5-a]pyridine-3-carboxylate]	< 30	< 30	< 30	< 30	< 30	30 to 300	73	< 15	–
O=Cc1cnn2ccc(OCCCCN3CCN(c4ccc(Cl)cc4)CC3)cc12 [Example E25]	< 30	< 30	30 to 300	30 to 300	30 to 300	301 to 3000	113	15 to 40	–
Clc1ccccc1N1CCN(CCCCOc2ccn3nccc3c2)CC1 [Example E17, 5-[4-[4-(2-Chlorophenyl)piperazin-1-yl]butoxy]pyrazolo[1,5-a]pyridine]	< 30	< 30	< 30	30 to 300	30 to 300	301 to 3000	163	15 to 40	–
O=Cc1cnn2ccc(OCCCCN3CCN(c4ccc(O)cc4)CC3)cc12 [Example E26, 5-[4-[4-(4-Hydroxyphenyl)piperazin-1-yl]butoxy]pyrazolo[1,5-a]pyridine-3-carbaldehyde]	30 to 300	< 30	30 to 300	30 to 300	30 to 300	301 to 3000	164	40 to 75	–
O=Cc1cnn2ccc(OCCCCN3CCN(c4cccc([N+](=O)[O-])c4)CC3)cc12 [Example E69, 5-[4-[4-(3-Nitrophenyl)piperazin-1-yl]butoxy]pyrazolo[1,5-a]pyridine-3-carbaldehyde]	< 30	< 30	30 to 300	30 to 300	30 to 300	301 to 3000	178	15 to 40	–
COc1ccccc1N1CCN(CCCCOc2cccn3nccc23)CC1 [Example E8, 4-[4-[4-(2-Methoxyphenyl)piperazin-1-yl]butoxy]pyrazolo[1,5-a]pyridine]	< 30	< 30	< 30	< 30	< 30	301 to 3000	74	< 15	–
Clc1cccc(N2CCN(CCCOCc3ccn4nccc4c3)CC2)c1Cl [Example E13, 5-[3-[4-(2,3-Dichlorophenyl)piperazin-1-yl]propoxymethyl]pyrazolo[1,5-a]pyridine]	< 30	< 30	< 30	30 to 300	30 to 300	30 to 300	69	–	< 15
Clc1ccccc1N1CCN(CCCCOc2ccn3nnnc3c2)CC1 [Example E98, 7-[4-[4-(2-Chlorophenyl)piperazin-1-yl]butoxy]tetrazolo[1,5-a]pyridine]	< 30	< 30	< 30	< 30	< 30	301 to 3000	101	–	–
O=Cc1c(OCCCCN2CCN(c3cccc(Cl)c3Cl)CC2)nn2ccccc12 [Example E4, 2-[4-[4-(2,3-Dichlorophenyl)piperazin-1-yl]butoxy]pyrazolo[1,5-a]pyridine-3-carbaldehyde]	< 30	< 30	< 30	< 30	< 30	30 to 300	100	15 to 40	–
Clc1ccccc1N1CCN(CCCCOc2ccn3ncc(I)c3c2)CC1 [Example E50, 5-[4-[4-(2-Chlorophenyl)piperazin-1-yl]butoxy]-3-iodo-pyrazolo[1,5-a]pyridine]	–	–	–	–	30 to 300	301 to 3000	94	–	–
Clc1ccccc1N1CCN(CCCCOc2ccn3ncc(Br)c3c2)CC1 [Example E44, 3-Bromo-5-[4-[4-(2-chlorophenyl)piperazin-1-yl]butoxy]pyrazolo[1,5-a]pyridine]	–	–	–	–	–	–	84	–	15 to 40
COc1ccccc1N1CCN(CCCCOc2ccn3nnnc3c2)CC1 [Example E97, 7-[4-[4-(2-Methoxyphenyl)piperazin-1-yl]butoxy]tetrazolo[1,5-a]pyridine]	< 30	< 30	< 30	< 30	< 30	> 3000	124	–	–
Clc1cccc(N2CCN(CCCCOc3ccn4nnnc4c3)CC2)c1Cl [Example E63, 7-[4-[4-(2,3-Dichlorophenyl)piperazin-1-yl]butoxy]tetrazolo[1,5-a]pyridine]	< 30	< 30	< 30	< 30	30 to 300	30 to 300	138	–	–
COc1ccccc1N1CCN(CCCCOc2ccn3ncc(CO)c3c2)CC1 [Example E72]	< 30	< 30	< 30	< 30	< 30	301 to 3000	–	15 to 40	–
CC(=O)c1cnn2ccc(OCCCCN3CCN(c4ccccc4Cl)CC3)cc12 [Example E29, 1-(5-[4-[4-(2-Chlorophenyl)piperazin-1-yl]butoxy]pyrazolo[1,5-a]pyridine-3-yl)ethanone]	< 30	< 30	< 30	< 30	< 30	30 to 300	–	< 15	–
COc1ccccc1N1CCN(CCCCOc2ccn3ncc(C)c3c2)CC1 [Example E75, 5-[4-[4-(2-Methoxyphenyl)piperazin-1-yl]butoxy]-3-methylpyrazolo[1,5-a]pyridine]	< 30	< 30	< 30	< 30	< 30	301 to 3000	–	< 15	–
O=[N+]([O-])c1cccc(N2CCN(CCCCOc3ccn4nccc4c3)CC2)c1 [Example E65, 5-[4-[4-(3-Nitrophenyl)piperazin-1-yl]butoxy]pyrazolo[1,5-a]pyridine]	–	–	–	–	–	–	73	–	–
COc1ccccc1N1CCN(CCCCOc2cccc3ccnn23)CC1 [Example E58, 7-[4-[4-(2-Methoxyphenyl)piperazin-1-yl]butoxy]pyrazolo[1,5-a]pyridine]	30 to 300	30 to 300	30 to 300	< 30	< 30	301 to 3000	–	15 to 40	–
